Article PMC8868285, “Pharmacological Inhibition of Epac1 Averts Ferroptosis Cell Death by Preserving Mitochondrial Integrity” (Antioxidants, 2022)

Key:
[1] = test system: HT-22 cells; assay: MTT cell viability assay; type: cell-based, mouse
Procedure: (§1) Cell viability and metabolic activity of cells was first assessed using a colorimetric 3-(4,5-dimethylthiazol-2-yl)-2,5-diphenyltetrazolium Bromide (MTT) (Sigma–Aldrich Chemie GmbH, Steinheim, Germany, #M5655) reduction assay. Cells in a 96-well plate format (8–10,000 cells/well) were incubated with the MTT solution (0.5 mg/mL) for a maximum of 1 h at 37 °C. Afterward, the MTT-containing solution was entirely removed, and the 96-well plate was incubated at −80 °C for at least 2 h. To allow formazan to uniformly disperse in the medium, dimethyl sulfoxide (DMSO) (Sigma–Aldrich Chemie GmbH, Steinheim, Germany, #D8418, Lot# SHBH9942) was administered to the cells for 1 h at 37 °C with continuous shaking. The absorbance values were determined by Synergy™H1 (Bad Friedrichshall, Germany) Hybrid MultiMode Reader at 570 nm with a 630 nm reference filter. The absorbance values of untreated healthy cells or cells treated with DMSO 1% (used as a solvent for various pharmacological applications) were regarded as 100% of cell viability. […] HT-22 cells were treated with the following conditions: control condition (solvent), drug of interest, erastin, and pre- or co-treatment with erastin and drug of interest. Cells as appropriate were pre-treated for 30 min with the drug of interest before the addition of erastin. xCELLigence ®RTCA MP system (ACEA BIO, Amsterdam, The Netherlands) was used to measure cell impedance in real time. The xCELLigence ®RTCA MP system is a label-free real-time cell-based assay, suitable for continuous monitoring of alteration/modifications of the morphology of cells. Continuous cell monitoring was performed by using an E-plate 96 and the cellular impedance or cell resistance was assessed every 15 min for 24 h.

[2] = test system: retinal glial cells (RGC); design: method as in PMID 31918438; conditions: cited from earlier work
[3] = test system: HT-22 cells; assay: xCELLigence real-time cell impedance measurement; type: cell-based, mouse; conditions: erastin alone, dose response
Procedure: as §1, with “Cells as appropriate were pre-treated for 30 min with the drug of interest before the addition of erastin. xCELLigence ®RTCA MP system (ACEA BIO, Amsterdam, The Netherlands) was used to measure cell impedance in real time. The xCELLigence ®RTCA MP system is a label-free real-time cell-based assay, suitable for continuous monitoring of alteration/modifications of the morphology of cells.” left out

[4] = test system: HT-22 cells; assay: Brightfield images of cell morphology; type: cell-based, mouse
[5] = test system: HT-22 cells; assay: Mitochondrial morphology (MitoTracker Deep Red, categories I-III); type: cell-based, mouse; conditions: erastin 1 μM alone
Procedure: Mitochondrial morphology was assessed using imaging of HT-22 cells stained with MitoTracker™Deep Red FM (Invitrogen, Oregon City, OR, USA, #M22426). Cells were treated with either erastin 1 µM, CE3F4 100 µM, or co-treated with erastin 1 µM and CE3F4 100 μM for 18 h. After the treatment, cells were incubated with 200 nM MitoTracker™Deep Red FM for 30 min at 37 °C. Untreated cells were included as controls. 4% paraformaldehyde (PFA) was used for fixation and detection of the MitoTracker fluorescence was achieved by 620 nm (excitation) and 700 ± 75 nm (detection). 500 cells per condition were counted and grouped into three different categories, based on their mitochondrial morphology/shape. The analysis and categorization of mitochondria was done by an investigator without previous knowledge of the various experimental conditions. Category I included healthy cells with mitochondria that form an elongated tubular network that is distributed equally throughout the cytosol. It could also include short mitochondria, but distributed in the cytosol. On the other hand, Category II included cells which contained large, and fragmented/granulated mitochondria around the nucleus. […] Category III represented damaged and dying cells with observed small rounded mitochondria of varying sizes and in proximity to the nucleus.. At least three independent experiments were performed.

[6] = test system: HT-22 cells; assay: Extracellular flux analysis (Seahorse), oxygen consumption rate; type: cell-based, mouse
Procedure: Cellular Oxygen Consumption Rate (OCR) was measured by using an XFe96 extracellular flux analyzer (Seahorse Bioscience, Billerica, MA, USA) which also entailed the mitochondrial stress test as described previously. HT-22 cells (10,000 cells/well) were seeded onto the XFe96-well cell culture microplate and incubated at 37 °C, 5% CO2. 24 h before the assay, the growth medium was replaced with a fresh medium containing either DMSO 1%, erastin 1 µM, CE3F4 alone, ESI-05 alone or a co-treatment of erastin with either CE3F4 or ESI-05. Cells in 180 μL of assay non-buffered DMEM medium supplemented with 2 mM glutamine, 4.5 g/L glucose and 1 mM pyruvate, pH 7.35 were incubated for 1 h in a CO2 free incubator at 37 °C. Basal respiration was measured before injecting the inhibitors that included; oligomycin (4 μM; port A)—an ATP synthase inhibitor; 2,4-dinitrophenol (DNP) (Sigma–Aldrich Chemie GmbH, Steinheim, Germany, #34334) (50 μM; port B)—a mitochondrial oxidative phosphorylation uncoupler; and rotenone (Sigma–Aldrich Chemie GmbH, Steinheim, Germany, #R8875) together with antimycin A (Sigma–Aldrich Chemie GmbH, Steinheim, Germany, #A8674) 0.1 μM and 1 μM; port C)—complex I and complex III inhibitors. By using the BCA assay, OCR measurements were normalized to the protein amount in every well. Three independent experiments with six wells per condition were performed, and a one-way ANOVA test was used to determine statistical significance among different groups.

[7] = test system: HT-22 cells; assay: Soluble ROS, CM-DCF FACS; type: cell-based, mouse
Procedure: Soluble ROS was evaluated by CM-DCF fluorescent dye (Invitrogen, Oregon City, OR, USA). CM-DCF passively diffuses into cells, and reacts with glutathione and other thiols following cleavage by intracellular esterases, which in turn exposes the thiol-reactive chloromethyl group. The oxidation that follows results in a fluorescent adduct that is ensnared within the cell. The higher the fluorescence, the more cellular ROS is produced in the cells.

[8] = test system: HT-22 cells; assay: Lipid peroxidation, BODIPY FACS; conditions: erastin 1 μM alone, 4 h
Procedure: (§2) Flow cytometry analysis using the CytoFLEXS benchtop flow cytometer (Beckman Coulter Life Sciences, Indianapolis, IN, USA) was used to evaluate intracellular parameters that are associated with not only oxidative stress but also mitochondrial dysfunction, and cell death. HT-22 cells (40,000 cells/well) seeded in 24-well plates were treated with various conditions. Treatment groups included: control condition (DMSO 1%), erastin 1 µM or 1.5 µM, CE3F4 100 µM, and co-treatment of erastin and CE3F4. Three separate wells were analyzed for each condition and the same number of counts (10,000/well) were measured by flow cytometry. At least three independent experiments were performed, and the Kaluza Analysis 1.5 software was employed for quantification of data.
The staining dye BODIPY 2 μM (Invitrogen, Karlsruhe, Germany, # D3861, Lot # 1890330) was used to estimate lipid peroxidation. Erastin treatment was done for 4 h. HT-22 cells were then stained for 30 min at RT, followed by a one-time wash with PBS and finally analyzed. Fluorescence excitation and detection were done at 488 nm and 530 nm respectively.

[9] = test system: HT-22 cells; assay: Mitochondrial superoxide, MitoSOX FACS
Procedure: as §2
MitoSOX dye (Invitrogen, Oregon City, OR, USA, #M36008, Lot#1924466) was used to evaluate mitochondrial ROS. The MitoSOX dye is able to permeate live cells and also selectively target mitochondria where it is swiftly oxidized by superoxides but not by other reactive oxygen species. […] Incubation of HT-22 cells with MitoSOX™ 1.25 μM dye was done for 30 min at 37 °C. Fluorescence excitation and detection were done at 488 nm and 690/50 nm respectively.

[10] = test system: HT-22 cells; assay: Mitochondrial membrane potential, TMRE FACS
Procedure: as §2
Staining with TMRE™ dye (tetramethylrhodamine-ethyl ester; Invitrogen, Oregon City, OR, USA, #T669) was used to determine loss of mitochondrial membrane potential (MMP) (ΔΨm). […] Collected cells were incubated for 20 min with TMRE 0.2 μM at 37 °C. Fluorescence excitation and detection were done at 488 nm 690/50 nm respectively.

[11] = test system: HT-22 cells; assay: Cell death assessment, FACS analysis of PI staining; conditions: erastin 1 μM alone
Procedure: as §2
The amount of cell death after stimulation with erastin for 16–17 h was assessed by incubating trypsonized HT-22 cell suspension with propidium iodide (PI) (Invitrogen, Oregon City, OR, USA, #V13242, Lot #2008168) in a binding buffer. Incubation with the dye was for 30 min at RT. Fluorescence was detected at 494/518 and 535/617 for FITC and PI respectively.

[12] = test system: isolated mitochondria from HT-22 cells; assay: High-resolution respirometry (Oroboros) of isolated mitochondria; design: species or system mouse
Procedure: Mitochondria were isolated from harvested HT-22 cells (4–8 × 10^7 cultivated in T75 flasks) using a semi-automated pump-controlled cell rupture system (PCC) (0.71 mL/min) with syringes (SGE, Trajan© Scientific, Ringwood, Australia) attached to a cell homogenizer (Isobiotech, EMBL, Heidelberg, Germany) (bead size of 10 μm suitable for HT-22 cells) and superimposed on a pump (ProSense B.V, Oosterhout, The Netherlands, #NE1000). Collected samples were centrifuged at 800 rpm for 10 min at 4 °C. The supernatant was further centrifuged at 9000× g for 10 min at 4 °C. The resulting pellet was the crude mitochondria. Finally, the mitochondria were suspended in an isolation buffer (HEPES 20 mM, sucrose 250 mM EDTA 3 mM, pH 7.5) for subsequent experiments. The whole procedure was executed on ice.
The protein concentration of isolated mitochondria was determined using the Pierce™ BCA Protein Assay Kit (Pierce™ BCA Protein Assay Kit, Thermo Scientific, Rockford, IL, USA, #23225). Respiration of the isolated mitochondria from HT-22 cells was analyzed using the high-resolution respirometry oxygraph O2K (Oroboros Systems, Innsbruck, Austria). The isolated mitochondria (200 μg) prepared as previously described, were treated with either CE3F4, ESI-05, ethanol, or DMSO as appropriate for 25 min, followed by mitochondrial respiration measurements. Mitochondrial state 1 was determined by continuous stirring at 750 rpm in 1 mL of MiR05 buffer (MgCl2 3 mM, lactobionic acid 60 mM, EGTA 0.5 mM taurine 20 mM, KH2PO4 10 mM, D-Sucrose 110 mM, HEPES 20 mM, BSA, essential fatty acid-free1 g/L, pH adjusted to 7.4). DatLab software (Oroboros Systems, Innsbruck, Austria) was used to record real-time oxygen flux per tissue mass (pmol O2. s^−1 × mg^−1) at 37 °C and to perform oxygen polarography. States were described as, State 2: a non-phosphorylating respiration state which was assessed by addition of complex-I linked substrates, 5 mM pyruvate (Sigma–Aldrich Chemie GmbH, Steinheim, Germany #P-2256), and 2 mM malate (Sigma–Aldrich Chemie GmbH, Steinheim, Germany, #374318); State 3: the oxidative-phosphorylation capacity (OXPHOS) state, of complex-I linked activity or basal respiration was achieved by adding a saturating concentration of 0.8 mM ADP (Sigma–Aldrich Chemie GmbH, Steinheim, Germany, #A5285), this allowed for calculation of ADP-coupled repiration; State 4: Achieved by subsequent addition of oligomycin 0.1 μM/mL (Sigma–Aldrich Chemie GmbH, Steinheim, Germany, #O4876) following state 3, oligomycin blocks the ATP-synthase, thereby inhibiting proton passage; State 3U: Was assessed by incremental steps of 1 μM addition of FCCP—theprotonophore carbonyl cyanide 4-(trifluoromethoxy) phenylhydrazone (Sigma–Aldrich Chemie GmbH, Steinheim, Germany, #C2920), this allowed the calculation of the reserve capacity of the Electron Transport Chain (ETC); Finally, sodium dithionite (DTT, Sigma–Aldrich Chemie GmbH, Steinheim, Germany, #15,795-3) was added to reduce all residual oxygen that was present in the chamber and to calibrate the oxygen content in the chamber. The O2 slope (pmol × (mL/s)) of isolated mitochondria was the oxygen concentration and also the initial derivate of the oxygen concentration—a derivative of oxygen consumption. Measurements were recorded in intervals of 2 s by using a background correction after calibration of the polarographic oxygen sensors.

[13] = test system: Epac2; conditions: ESI-05, Epac2 inhibitor; cited from earlier work
[14] = test system: secondary brain injury induced by intracerebral hemorrhage; design: method as in PMID 30607901; conditions: cited from earlier work
[15] = test system: traumatic brain injury; design: method as in PMID 29740274; conditions: cited from earlier work
[16] = test system: Epac; design: method as in BioLog, Cat.No. C 041; conditions: no literature reference printed; ref BioLog, Cat.No. C 041; cited from earlier work

## CC(C)(C)c1cc(C(=O)/C(C#N)=N/Nc2cccc(Cl)c2)no1 [ESI-09]
[1]; ESI-09, 30 μM
  neuroprotection against erastin-induced ferroptosis (MTT): dose-dependent neuroprotection
[2]
  effect on RGC: neuroprotective

## CCOc1ccccc1-n1c(C(C)N2CCN(C(=O)COc3ccc(Cl)cc3)CC2)nc2ccccc2c1=O (stereo not shown) [erastin]
[1]; erastin alone, dose response
  cell death (MTT cell viability): dose-dependent cell death
[3]
  cell death (real-time cell impedance): dose-dependent cell death
[4]; erastin 1 μM alone
  cell morphology: marked alteration in cell morphology
[5]
  mitochondrial morphology: induced pronounced mitochondrial fragmentation
[6]; erastin 1 μM vs untreated or solvent-treated controls
  mitochondrial respiration (OCR): significant decrease in mitochondrial respiration
[7]; erastin 1 μM alone
  ROS level (CM-DCF): significantly increased
[7]; erastin 1.5 μM alone
  ROS level (CM-DCF): significantly increased
[8]
  lipid peroxidation: increased
[9]; erastin 1 μM alone
  mitochondrial superoxide levels: significant increase and shift towards high ROS levels
[9]; erastin 1.5 μM alone
  mitochondrial superoxide levels: significant increase and shift towards high ROS levels
[10]; erastin 1 μM alone
  mitochondrial membrane potential (ΔΨm): significant loss of ΔΨm
[10]; erastin 1.5 μM alone
  mitochondrial membrane potential (ΔΨm): significant loss of ΔΨm
[11]
  cell death (PI staining): augmented cell death

## Cc1ccc(S(=O)(=O)c2c(C)cc(C)cc2C)cc1 [ESI-05]
[1]; 100 μM ESI-05 with lower concentrations of erastin
  neuroprotection against erastin-induced ferroptosis (MTT): did not mediate neuroprotection
[1]; ESI-05 3–30 μM
  neuroprotection against erastin-induced ferroptosis (MTT): did not mediate neuroprotection
[4]; ESI-05 30 μM + erastin 1 μM
  neuroprotection against erastin-induced ferroptosis (bright-field microscopy images): did not mediate neuroprotection
[12]; 10 μM ESI-05
  respiration rate after inhibition of ETC complex V (state 4): significantly increased
[12]; ESI-05 30 μM
  mitochondrial respiration: does not affect mitochondria respiration
[6]; 30 μM ESI-05 + erastin 1 μM vs erastin alone
  mitochondrial respiration (OCR): did not induce any significant difference
[13]
  IC50: 0.4 µM
[14]
  secondary brain injury induced by intracerebral hemorrhage: suppressed secondary brain injury
[15]
  neural cell apoptosis after traumatic brain injury: decreased neural cell apoptosis
  neurological deficits after traumatic brain injury: improved other neurological deficits

## CO[C@@H]1[C@@H]2OP(=O)(O)OC[C@H]2O[C@H]1n1c(Sc2ccc(Cl)cc2)nc2c(N)ncnc21 [8-PCPT-2-O-Me-cAMP]
[1]; 8-pCPT 10–100 μM
  neuroprotection against erastin-induced ferroptosis (MTT): did not mediate neuroprotection
[16]
  AC50: 1.8 µM

## CO[C@@H]1[C@@H]2OP(=O)(OCOC(C)=O)OC[C@H]2O[C@H]1n1c(Sc2ccc(Cl)cc2)nc2c(N)ncnc21 (stereo partly shown) [8-pCPT-2-O-Me-cAMP-AM]
[2]
  effect on RGC: neurotoxic effects
